For data set [1], the system named is PC9 (Del19/T790M/C797S) cells. Kind of data set: In vivo efficacy study, PC9 (Del19/T790M/C797S) xenograft. Set-up: species or system BALB/c-nu mice. To be noted: 21 consecutive days; for Tumor volume (mm^3): mean ± SEM; for Tolerability in mice (in words): po. The protocol:
(III) In Vivo Efficacy Study Experiment
The anti-tumor activity and toxic and side effects of compound 53 and compound 27 administered orally for 21 consecutive days on PC9 (Del19/T790M/C797S) were evaluated.
SPF-grade and female BALB/c-nu mice, purchased from Beijing Vital River Laboratory Animal Technology Co., Ltd.
PC9 (Del19/T790M/C797S) cells, self-constructed by Qilu Pharmaceutical Co., Ltd.
PC9 (Del19/T790M/C797S) cells were cultured in RPMI 1640 medium containing 10% FBS at 37° C. in a 5% carbon dioxide incubator; and the cells in exponential growth phase were collected for inoculation.
Under sterile conditions, a cell suspension of in vitro cultured PC9 (Del19/T790M/C797S) was taken, centrifuged to adjust the cell concentration to 3×10^7 cells/mL, and inoculated in mice at the right side armpit (0.1 mL/mouse), and the day of inoculation was defined as day 0.
3.3 Tumor Grouping, Administration and Measurement
a. When the mean tumor volume was about 150 mm^3, 35 mice with moderate tumor volume were selected for enrollment and randomized into 5 groups according to tumor volume: G1: vehicle control group, G2: compound 53 (15 mg/kg), G3: compound 53 (60 mg/kg), G4: compound 27 (15 mg/kg) and G5: compound 27 (35 mg/kg), 7 mice/group.
b. The animals were grouped and then started to be administrated, and the volume for oral administration (po) was 10 mL/kg; the weighing was performed once daily with consecutively 21-day administration; the tumor diameters were measured 2 times a week.
c. Tumor volume (TV): tumor volumes were measured 2 times a week to observe tumor mass volume changes and growth rate. Tumor volume V=1/2×a×b^2, where a and b represent tumor long diameter and short diameter, respectively. The growth inhibition effect of the compounds on tumor tissues is evaluated by using a tumor growth inhibition TGI (%). TGI (%)=[1−(average tumor volume of a certain administration group—average tumor volume at the day of grouping in the administration group)/(average tumor volume of negative control group—average tumor volume on the day of grouping in the negative control group)]×100%. The data of the administration group and the negative control group were obtained on the same day.
d. The mice's living status, including appearance signs, general behavioral activities, mental status, food consumption, respiratory status, fecal and urinary traits, injection site conditions and other toxic manifestations, was closely observed during the course of the experiment.
e. After the endpoint was reached, the mice were euthanized, and animal carcasses were frozen and stored in a freezer and transferred to qualified medical waste treatment organization for disposal.

For data set [2], the target named is EGFR WT (wild type EGFR) (Homo sapiens (Human), UniProt P00533). Kind of data set: In vitro enzymatic TR-FRET (HTRF KinEASE-TK) kinase assay, EGFR WT. The format is biochemical. The conditions noted are these: kinase activity, TR-FRET; read-out: EGFR (WT) IC50. In short, it runs like this: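 Recombinant enzyme preincubated with compound 10 min at room temperature in kinase buffer with 5 mM MgCl2, 1 mM MnCl2, 1 mM DTT. Biotinylated TK substrate plus ATP then added for 40 min. HTRF detection (Sa-XL665, Cryptate antibody) for 1 h; IC50 from 665/615 nm ratio.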
(In general: Time-resolved FRET reads energy transfer from a long-lived donor to a nearby acceptor.)

In data set [3] the target is EGFR L858R/T790M/C797S (Homo sapiens (Human), UniProt P00533, C797S/L858R/T790M). Kind of data set: In vitro enzymatic TR-FRET (HTRF KinEASE-TK) kinase assay, EGFR L858R/T790M/C797S. Type of data set: biochemical. The conditions noted are these: kinase activity. The protocol:
(I) In Vitro Enzymatic Experiment for EGFR WT and EGFR L858R/T790M/C797S
In the assay, the inhibition effect of the compound on the kinase activity of EGFR WT (wild type EGFR) and EGFR L858R/T790M/C797S was tested by adopting a time-resolved fluorescence resonance energy transfer (TR-FRET) method, and half maximal inhibitory concentration IC50 of the compound on the kinase activity of EGFR was obtained.
EGFR recombinase and EGFR L858R/T790M/C797S recombinase, purchased from Signalchem.
HTRF KinEASE-TK kit, purchased from Cisbio.
DTT, MnCl2, and MgCl2, purchased from Sigma.
ATP, purchased from Promega.
Brigatinib, purchased from Selleck.
1) 1× working solution was prepared: 5 mM MgCl2; 1 mM DTT; 1 mM MnCl2 and 1× kinase buffer (in kit).
2) […] of gradiently-diluted compound was transferred to a 384-well plate using Echo 550 (Labcyte).
3) 5 μL of 2× EGFR WT or EGFR L858R/T790M/C797S recombinase solution was added to the 384-well plate, and the plate was incubated at room temperature for 10 min.
4) 5 μL of 2× TK-substrate-biotin substrate solution (containing ATP) was added to the 384-well plate, and the plate was incubated at room temperature for 40 min.
5) 5 μL of assay solution containing Sa-XL 665 HTRF and 5 μL of TK-antibody-Cryptatewas were added to the plate, and the plate was incubated at room temperature for 1 h.
6) The fluorescence signal values at 615 nm and 665 nm were measured for each well using an Envision microplate reader (PerkinElmer).
7) The ratio of fluorescence signal values at 665 nm and 615 nm was calculated for each well.
8) Data analysis was performed using GraphPad Prism software to give the IC50 for compounds.

Data set [4] has as its system Ba/F3_Del19/T790M/C797S cells. Nature of the data set: Ba/F3_Del19/T790M/C797S cell proliferation inhibition assay (CellTiter-Glo). The format is cell-based. To be noted: Mus musculus, BaF3; cell proliferation, 72 h, CellTiter-Glo; read-out: Ba/F3 (Del19/T790M/C797S) IC50. Summed up:
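Ba/F3 cells carrying EGFR Del19/T790M/C797S were seeded at 700 cells/well and exposed to serially diluted compound (0.1% DMSO final) for 72 h at 37° C. Viability was read by CellTiter-Glo luminescence to give IC50.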
Background: Cellular ATP, detected with luciferase, serves as a proxy for viable cell number.

Data set [5] deals with A431 cells (EGFR WT). Nature of the data set: A431 cell proliferation inhibition assay (CellTiter-Glo). The format is cell-based. The conditions noted are these: Homo sapiens, A-431; cell proliferation, 72 h, CellTiter-Glo; read-out: A431 EGFR WT IC50. Summed up:
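Seeded cells grown 24 h, then exposed 72 h (37° C, 5% CO2) to graded compound dilutions at 0.1% DMSO final. Viability read by CellTiter-Glo luminescence after 30 min at room temperature; IC50 fitted from the dose curve.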

The subject of data set [6] is Ba/F3_L858R/T790M/C797S cells. Kind of data set: Ba/F3_L858R/T790M/C797S cell proliferation inhibition assay (CellTiter-Glo). The format is cell-based. The conditions noted are these: Mus musculus, BaF3; cell proliferation, 72 h, CellTiter-Glo; read-out: Ba/F3 (L858R/T790M/C797S) IC50. Summed up: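 Ba/F3 cells engineered to carry EGFR L858R/T790M/C797S, seeded at 700 cells/well, exposed to serially diluted compound (0.1% DMSO final) for 72 h at 37 °C, 5% CO2. Viability read by CellTiter-Glo luminescence after 30 min at room temperature; IC50 from dose-response fit.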

Data on two compounds can be found in patent publication US20240034743A9, “TRICYCLIC COMPOUNDS AS EGFR INHIBITORS” (QILU PHARMACEUTICAL CO., LTD., priority 2020, published 2024).

pIC50: −log10 of the molar value. Marks after values point to notes of the source that are not given here.

Chain of EGFR L858R/T790M/C797S (P00533 25-1210 T790M/C797S/L858R): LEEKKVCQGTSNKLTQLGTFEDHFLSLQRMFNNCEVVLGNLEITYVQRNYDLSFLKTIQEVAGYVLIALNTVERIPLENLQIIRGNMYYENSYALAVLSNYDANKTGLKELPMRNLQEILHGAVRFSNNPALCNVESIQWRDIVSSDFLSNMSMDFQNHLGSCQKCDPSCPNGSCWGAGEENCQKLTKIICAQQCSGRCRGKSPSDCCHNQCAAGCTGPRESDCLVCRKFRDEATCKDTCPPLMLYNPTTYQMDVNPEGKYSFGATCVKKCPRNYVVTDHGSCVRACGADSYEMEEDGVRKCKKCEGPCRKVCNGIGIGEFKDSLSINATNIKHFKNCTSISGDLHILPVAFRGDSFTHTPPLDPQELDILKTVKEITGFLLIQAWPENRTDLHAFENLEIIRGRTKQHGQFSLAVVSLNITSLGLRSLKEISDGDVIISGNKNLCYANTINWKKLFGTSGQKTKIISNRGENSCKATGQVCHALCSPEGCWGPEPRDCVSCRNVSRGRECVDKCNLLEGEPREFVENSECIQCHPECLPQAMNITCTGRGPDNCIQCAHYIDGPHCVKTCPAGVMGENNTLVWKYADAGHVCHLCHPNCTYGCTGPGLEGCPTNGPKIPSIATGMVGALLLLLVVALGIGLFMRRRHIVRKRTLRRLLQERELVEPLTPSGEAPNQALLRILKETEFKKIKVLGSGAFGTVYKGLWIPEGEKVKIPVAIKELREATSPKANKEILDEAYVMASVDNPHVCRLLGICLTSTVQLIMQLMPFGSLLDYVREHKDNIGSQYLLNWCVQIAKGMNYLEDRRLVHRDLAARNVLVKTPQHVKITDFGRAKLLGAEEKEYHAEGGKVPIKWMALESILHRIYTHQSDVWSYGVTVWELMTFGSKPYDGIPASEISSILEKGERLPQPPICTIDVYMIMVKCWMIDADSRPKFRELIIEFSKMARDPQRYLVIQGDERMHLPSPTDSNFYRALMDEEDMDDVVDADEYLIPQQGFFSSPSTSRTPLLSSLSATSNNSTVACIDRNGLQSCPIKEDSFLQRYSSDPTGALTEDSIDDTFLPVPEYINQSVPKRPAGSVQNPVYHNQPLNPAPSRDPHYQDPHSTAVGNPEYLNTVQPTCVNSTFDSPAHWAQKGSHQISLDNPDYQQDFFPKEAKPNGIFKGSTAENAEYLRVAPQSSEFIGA
Chain of EGFR WT (wild type EGFR) (P00533 25-1210): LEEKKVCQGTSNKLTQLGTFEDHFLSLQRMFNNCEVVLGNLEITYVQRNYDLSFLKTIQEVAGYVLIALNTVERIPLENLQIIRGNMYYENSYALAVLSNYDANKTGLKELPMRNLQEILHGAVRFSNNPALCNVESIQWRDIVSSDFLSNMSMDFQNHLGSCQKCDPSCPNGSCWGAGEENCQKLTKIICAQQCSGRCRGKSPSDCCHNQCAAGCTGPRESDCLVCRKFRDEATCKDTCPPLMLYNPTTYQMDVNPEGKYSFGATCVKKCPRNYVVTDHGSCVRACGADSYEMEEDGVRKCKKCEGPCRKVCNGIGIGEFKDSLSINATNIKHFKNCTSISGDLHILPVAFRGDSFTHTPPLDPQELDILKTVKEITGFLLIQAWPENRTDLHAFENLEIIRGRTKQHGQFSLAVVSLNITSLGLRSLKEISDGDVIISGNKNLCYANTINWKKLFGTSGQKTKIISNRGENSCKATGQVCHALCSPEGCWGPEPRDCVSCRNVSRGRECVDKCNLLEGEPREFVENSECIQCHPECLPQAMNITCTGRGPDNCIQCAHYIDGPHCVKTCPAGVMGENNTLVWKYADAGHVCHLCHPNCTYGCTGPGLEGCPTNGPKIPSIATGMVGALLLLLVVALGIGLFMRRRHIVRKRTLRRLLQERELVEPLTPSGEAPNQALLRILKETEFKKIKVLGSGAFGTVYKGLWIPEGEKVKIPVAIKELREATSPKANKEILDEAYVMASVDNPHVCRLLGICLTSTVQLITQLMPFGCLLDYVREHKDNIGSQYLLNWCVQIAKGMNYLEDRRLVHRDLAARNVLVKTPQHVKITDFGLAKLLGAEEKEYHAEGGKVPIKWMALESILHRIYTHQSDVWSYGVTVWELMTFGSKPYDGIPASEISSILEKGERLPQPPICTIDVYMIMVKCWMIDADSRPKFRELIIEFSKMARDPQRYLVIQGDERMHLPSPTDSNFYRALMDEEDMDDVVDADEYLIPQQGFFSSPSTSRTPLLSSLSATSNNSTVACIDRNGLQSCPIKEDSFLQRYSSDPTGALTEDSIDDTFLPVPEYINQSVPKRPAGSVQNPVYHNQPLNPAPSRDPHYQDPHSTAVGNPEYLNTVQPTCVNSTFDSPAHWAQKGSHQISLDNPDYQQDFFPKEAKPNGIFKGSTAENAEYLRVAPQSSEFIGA

Regarding `COc1cc2c(cc1Nc1ncc(Br)c(Nc3ccc4nccnc4c3NS(C)(=O)=O)n1)-c1cnn(C)c1CCN2C(C)C` [Compound 53], the entries for the “Body weight change (%)” value in data set [1] (15 mg/kg po) and in data set [1] (60 mg/kg po) were 0% and 6.8%, respectively. Moreover, the “TGI (%)” value in data set [1] (15 mg/kg po) worked out at 55.9%; in data set [1] (60 mg/kg po), 102.0%. Besides, the “Tumor volume (mm^3)” value is reported as 565.8 ± 82.0 mm^3 in data set [1] (15 mg/kg po) and 117.0 ± 16.1** mm^3 in data set [1] (60 mg/kg po, P < 0.01 vs G1). Moreover, in data set [1], the “Tolerability in mice (in words)” value is reported as “well tolerated”. Moreover, the pIC50 in data set [2] is above 9.00; in data set [3], above 9.00; in data set [4], above 8.00; in data set [5], 6.00 to 7.00; in data set [6], above 8.00.

Consider `COc1cc2c(cc1Nc1ncc(Br)c(Nc3ccccc3P(C)(C)=O)n1)-c1cnn(C)c1CCN2C(C)C` [Compound 27], for which the entries for the “Body weight change (%)” value in data set [1] (15 mg/kg po) and in data set [1] (35 mg/kg po) were 7.0% and −1.7%, respectively. The “TGI (%)” value in data set [1] (15 mg/kg po) amounted to 50.6%; in data set [1] (35 mg/kg po) it was 88.1%. For the same compound, the “Tumor volume (mm^3)” value in data set [1] (15 mg/kg po) was 617.6 ± 110.7 mm^3; in data set [1] (35 mg/kg po, P < 0.01 vs G1) it was 253.0 ± 58.5** mm^3. The “Tolerability in mice (in words)” value in data set [1] is recorded as “well tolerated”. In addition, the pIC50 was 8.00 to 9.00 in data set [2]; above 9.00 in data set [3]; above 8.00 in data set [4]; 6.00 to 7.00 in data set [5]; above 8.00 in data set [6].
